Measured values: PubChem BioAssay AID1259407 (Chemical Carcinogenesis Research Information System (CCRIS), 2018)
Active and inactive are the calls of the source. No rule for the calls is given here.

Test system: CCRIS mutagenicity, Ames/micronucleus/aberration tests
Assay: CCRIS mutagenicity studies
[1] = Test System: AMES SALMONELLA TYPHIMURIUM, Strain/Indicator: TA98, Metabolic Activation: NONE, Method: STANDARD PLATE
[2] = Test System: AMES SALMONELLA TYPHIMURIUM, Strain/Indicator: TA98, Metabolic Activation: RAT, LIVER, S-9, AROCLOR 1254, Method: STANDARD PLATE
[3] = Test System: AMES SALMONELLA TYPHIMURIUM, Strain/Indicator: TA100, Metabolic Activation: NONE, Method: STANDARD PLATE
[4] = Test System: AMES SALMONELLA TYPHIMURIUM, Strain/Indicator: TA100, Metabolic Activation: RAT, LIVER, S-9, AROCLOR 1254, Method: STANDARD PLATE
[5] = Test System: AMES SALMONELLA TYPHIMURIUM, Strain/Indicator: TA1537, Metabolic Activation: RAT, LIVER, S-9, AROCLOR 1254, Method: STANDARD PLATE
[6] = Test System: AMES SALMONELLA TYPHIMURIUM, Strain/Indicator: TA98, Metabolic Activation: RAT, LIVER, S-9, AROCLOR 1254 (30%), Method: PREINCUBATION
[7] = Test System: AMES SALMONELLA TYPHIMURIUM, Strain/Indicator: TA100, Metabolic Activation: NONE, Method: PREINCUBATION
[8] = Test System: AMES SALMONELLA TYPHIMURIUM, Strain/Indicator: TA100, Metabolic Activation: RAT, LIVER, S-9, AROCLOR 1254 (30%), Method: PREINCUBATION
[9] = Test System: AMES SALMONELLA TYPHIMURIUM, Strain/Indicator: TA98, Metabolic Activation: NONE, Method: PREINCUBATION

O=C(C(=O)c1ccccc1)c1ccccc1 was tested, and the mutagenic call (Test System: AMES SALMONELLA TYPHIMURIUM, Strain/Indicator: TA98, Metabolic Activation: HAMSTER, LIVER, S-9, AROCLOR 1254, Method: STANDARD PLATE) was “inactive; negative”, the mutagenic call [1] was “inactive; negative” and the mutagenic call [2] was “inactive; negative”. For the same compound, the mutagenic call (Test System: AMES SALMONELLA TYPHIMURIUM, Strain/Indicator: TA100, Metabolic Activation: HAMSTER, LIVER, S-9, AROCLOR 1254, Method: STANDARD PLATE) was “inactive; negative”, the mutagenic call [3] was “inactive; negative” and the mutagenic call [4] was “inactive; negative”. The mutagenic call (Test System: AMES SALMONELLA TYPHIMURIUM, Strain/Indicator: TA1535, Metabolic Activation: HAMSTER, LIVER, S-9, AROCLOR 1254, Method: STANDARD PLATE) was “inactive; negative”, the mutagenic call (Test System: AMES SALMONELLA TYPHIMURIUM, Strain/Indicator: TA1535, Metabolic Activation: NONE, Method: STANDARD PLATE) was “inactive; negative” and the mutagenic call (Test System: AMES SALMONELLA TYPHIMURIUM, Strain/Indicator: TA1535, Metabolic Activation: RAT, LIVER, S-9, AROCLOR 1254, Method: STANDARD PLATE) was “inactive; negative”. The mutagenic call (Test System: AMES SALMONELLA TYPHIMURIUM, Strain/Indicator: TA1537, Metabolic Activation: HAMSTER, LIVER, S-9, AROCLOR 1254, Method: STANDARD PLATE) was “inactive; negative”, the mutagenic call (Test System: AMES SALMONELLA TYPHIMURIUM, Strain/Indicator: TA1537, Metabolic Activation: NONE, Method: STANDARD PLATE) was “inactive; negative” and the mutagenic call [5] was “inactive; negative”. For the same compound, the mutagenic call (Test System: AMES SALMONELLA TYPHIMURIUM, Strain/Indicator: TA1538, Metabolic Activation: HAMSTER, LIVER, S-9, AROCLOR 1254, Method: STANDARD PLATE) was “inactive; negative”, the mutagenic call (Test System: AMES SALMONELLA TYPHIMURIUM, Strain/Indicator: TA1538, Metabolic Activation: NONE, Method: STANDARD PLATE) was “inactive; negative” and the mutagenic call (Test System: AMES SALMONELLA TYPHIMURIUM, Strain/Indicator: TA1538, Metabolic Activation: RAT, LIVER, S-9, AROCLOR 1254, Method: STANDARD PLATE) was “inactive; negative”. The mutagenic call (Test System: Mouse lymphoma, Strain/Indicator: L5178Y (tk+/tk-), Metabolic Activation: None, Method: Suspension/plate) was “inactive; inconclusive (previous evaluation negative)” and the mutagenic call (Test System: Mouse lymphoma, Strain/Indicator: L5178Y (tk+/tk-), Metabolic Activation: Rat, Liver, S-9, Aroclor 1254, Method: Suspension/plate) was “inactive; negative”.

In the case of c1ccc2c(c1)ccc1cc3c(ccc4ccccc43)cc12, the mutagenic call (Test System: AMES SALMONELLA TYPHIMURIUM, Strain/Indicator: TA98, Metabolic Activation: HAMSTER, LIVER, S-9, AROCLOR 1254 (5 OR 30%), Method: PREINCUBATION) is reported as “inactive; negative”, the mutagenic call (Test System: AMES SALMONELLA TYPHIMURIUM, Strain/Indicator: TA98, Metabolic Activation: HAMSTER, LIVER, S-9, AROCLOR 1254 (10%), Method: PREINCUBATION) is reported as “active; positive” and the mutagenic call [6] is reported as “active; positive”. The mutagenic call [2] was “active; positive”, the mutagenic call (Test System: AMES SALMONELLA TYPHIMURIUM, Strain/Indicator: TA100, Metabolic Activation: HAMSTER, LIVER, S-9, AROCLOR 1254 (5, 10 OR 30%), Method: PREINCUBATION) was “active; positive” and the mutagenic call (Test System: AMES SALMONELLA TYPHIMURIUM, Strain/Indicator: TA100, Metabolic Activation: MOUSE, LIVER, S-9, 3-METHYLCHOLANTHRENE, Method: STANDARD PLATE) was “active; positive”. For the same compound, the mutagenic call (Test System: AMES SALMONELLA TYPHIMURIUM, Strain/Indicator: TA100, Metabolic Activation: MOUSE, LIVER, S-10, AROCLOR 1254) was “active; positive”, the mutagenic call [7] was “inactive; negative” and the mutagenic call [8] was “active; positive”. For the same compound, the mutagenic call [4] was “active; positive”, the mutagenic call [5] was “active; positive” and the mutagenic call (Test System: CHINESE HAMSTER V-79, Strain/Indicator: V-79/6-THIOGUANINE, Metabolic Activation: RAT, LIVER, S-9, PHENOBARBITAL, Method: STANDARD PLATE) was “active; positive”. For the same compound, the mutagenic call (Test System: CHINESE HAMSTER V-79, Strain/Indicator: V-79/OUABAIN, Metabolic Activation: CELL-MEDIATED, Method: STANDARD PLATE) was “active; positive”.

For CC(=O)n1ccnc1, the mutagenic call (Test System: AMES SALMONELLA TYPHIMURIUM, Strain/Indicator: TA97, Metabolic Activation: NONE, Method: STANDARD PLATE) was “inactive; negative”, the mutagenic call (Test System: AMES SALMONELLA TYPHIMURIUM, Strain/Indicator: TA97, Metabolic Activation: RAT, LIVER, S-9, AROCLOR 1254, Method: STANDARD PLATE) was “inactive; negative” and the mutagenic call [1] was “inactive; negative”. The mutagenic call [2] was “inactive; negative”, the mutagenic call [3] was “inactive; negative” and the mutagenic call [4] was “inactive; negative”. For the same compound, the mutagenic call (Test System: AMES SALMONELLA TYPHIMURIUM, Strain/Indicator: TA102, Metabolic Activation: NONE, Method: STANDARD PLATE) was “inactive; negative” and the mutagenic call (Test System: AMES SALMONELLA TYPHIMURIUM, Strain/Indicator: TA102, Metabolic Activation: RAT, LIVER, S-9, AROCLOR 1254, Method: STANDARD PLATE) was “inactive; negative”.

In the case of O=C(ON(OCc1ccccc1)C(=O)c1ccccc1)c1cccc([N+](=O)[O-])c1, the mutagenic call [3] is reported as “active; positive” and the mutagenic call (Test System: AMES SALMONELLA TYPHIMURIUM, Strain/Indicator: TA100, Metabolic Activation: RAT, S-9, AROCLOR, Method: STANDARD PLATE) is reported as “active; positive”.

Nc1ccc(Oc2cccc(Oc3ccc(N)cc3)c2)cc1 was tested, and the mutagenic call [9] was “inactive; negative”, the mutagenic call (Test System: AMES SALMONELLA TYPHIMURIUM, Strain/Indicator: TA98, Metabolic Activation: RAT, LIVER, S-9, PCB, Method: PREINCUBATION) was “active; positive” and the mutagenic call [7] was “inactive; negative”. For the same compound, the mutagenic call (Test System: AMES SALMONELLA TYPHIMURIUM, Strain/Indicator: TA100, Metabolic Activation: RAT, LIVER, S-9, PCB, Method: PREINCUBATION) was “active; positive”.

With O=C(O)Cc1ccccc1Cl the mutagenic call [9] was “inactive; negative”, the mutagenic call (Test System: AMES SALMONELLA TYPHIMURIUM, Strain/Indicator: TA98, Metabolic Activation: RAT LIVER S-9, PCB, Method: PREINCUBATION) was “inactive; negative” and the mutagenic call [7] was “inactive; negative”. For the same compound, the mutagenic call (Test System: AMES SALMONELLA TYPHIMURIUM, Strain/Indicator: TA100, Metabolic Activation: RAT LIVER S-9, PCB, Method: PREINCUBATION) was “inactive; negative”, the mutagenic call (Test System: AMES SALMONELLA TYPHIMURIUM, Strain/Indicator: TA104, Metabolic Activation: NONE, Method: PREINCUBATION) was “inactive; negative” and the mutagenic call (Test System: AMES SALMONELLA TYPHIMURIUM, Strain/Indicator: TA104, Metabolic Activation: RAT LIVER S-9, PCB, Method: PREINCUBATION) was “inactive; negative”. For the same compound, the mutagenic call (Test System: E.COLI, Strain/Indicator: WP2 UVRA, Metabolic Activation: NONE, Method: PREINCUBATION) was “inactive; negative” and the mutagenic call (Test System: E.COLI, Strain/Indicator: WP2 UVRA, Metabolic Activation: RAT LIVER S-9, PCB, Method: PREINCUBATION) was “inactive; negative”.

For CC(=O)OCC12OOC1(C)c1ccccc1O2 (stereo not drawn), the mutagenic call [7] was “active; positive”.

CCCCCC=O was tested, and the mutagenic call (Test System: CHINESE HAMSTER V-79, Strain/Indicator: V-79/6-THIOGUANINE (HGPRT), Metabolic Activation: NONE, Method: REPLATING) was “active; positive”, the mutagenic call (Test System: CHINESE HAMSTER V-79, Strain/Indicator: V-79/OUABAIN (NA/K), Metabolic Activation: NONE, Method: REPLATING) was “active; positive” and the mutagenic call (Test System: UDS HUMAN HEPATOCYTES, Strain/Indicator: THY INCORP, Metabolic Activation: NONE, Method: AUTORADIOGRAPHY) was “inactive; negative”. The mutagenic call (Test System: UDS RAT HEPATOCYTES, Strain/Indicator: THY INCORP, Metabolic Activation: NONE, Method: AUTORADIOGRAPHY) was “active; positive”.

For O=[N+]([O-])c1cc([N+](=O)[O-])c2ccccc2c1, the mutagenic call (Test System: AMES SALMONELLA TYPHIMURIUM, Strain/Indicator: TA98, Metabolic Activation: HAMSTER, LIVER, S-9, AROCLOR 1254 (30%), Method: PREINCUBATION) was “active; positive”, the mutagenic call [9] was “active; positive” and the mutagenic call [6] was “active; positive”. For the same compound, the mutagenic call (Test System: AMES SALMONELLA TYPHIMURIUM, Strain/Indicator: TA100, Metabolic Activation: HAMSTER, LIVER, S-9, AROCLOR 1254 (30%), Method: PREINCUBATION) was “active; positive”, the mutagenic call [7] was “active; positive” and the mutagenic call [8] was “active; positive”.
